Assay results reported in patent US11078170B2 (Assembly Biosciences, Inc., priority 2017, dated 2021).

Tested on: HBV viral production from HepAD38 cells
Test: Activity of test compounds on viral production from HepAD38 cells (viral load by qPCR of HBV core sequence in supernatant)
Assay type: cell-based
Conditions: Hepatitis B virus, 120 h, 5 days incubation, HBV DNA in supernatant by qPCR, top concentration 10 μM, read-out: Viral Load EC50 Activity range
How it was run: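 EC50 and CC50 come from four-parameter fits of supernatant viral load and CellTiter-Glo viability, respectively. Viral load was measured by core-region TaqMan qPCR against HBV DNA standards and compared with DMSO controls. Tet-free HepAD38 cells (50,000/well, 2% FBS) were exposed to compound, highest 10 μM, for 5 days at 37° C.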

SMILES | EC50 [µM]
COc1ccc(-c2cnc([C@@H]3C[C@H](C(=O)Nc4ccc(F)c(Cl)c4)N(C)S(=O)(=O)N3)s2)cc1 [HBV-CSU-250-ISO-II, Cis-N-(3-Chloro-4-fluorophenyl)-5-(5-(4-methoxyphenyl)thiazol-2-yl)-2-methyl-1,2,6-thiadiazinane-3-carboxamide 1,1-dioxide] | 1 to 5
[2H]C([2H])([2H])N1[C@H](C(=O)Nc2ccc(F)c(Cl)c2)C[C@H](c2ccc(-c3cn(C([2H])([2H])[2H])cn3)s2)NS1(=O)=O (stereo in doubt) [HBV-CSU-374-ISO-I, Cis-N-(3-Chloro-4-fluorophenyl)-2-(methyl-d3)-5-(5-(1-(methyl-d3)-1H-imidazol-4-yl)thiophen-2-yl)-1,2,6-thiadiazinane-3-carboxamide 1,1-dioxide] | < 1
CSCCN1C(C(=O)Nc2ccc(F)c(Cl)c2)CC(c2nccs2)NS1(=O)=O (racemic) [HBV-CSU-109, Cis-N-(3-Chloro-4-fluorophenyl)-2-(2-(methylthio)ethyl)-5-(thiazol-2-yl)-1,2,6-thiadiazinane-3-carboxamide 1,1-dioxide] | < 1
CN1[C@@H](C(=O)Nc2ccc(F)c(Cl)c2)C[C@@H](c2ccc(-c3c[nH]cn3)s2)NS1(=O)=O [HBV-CSU-331-ISO-II, Cis-5-(5-(1H-imidazol-4-yl)thiophen-2-yl)-N-(3-chloro-4-fluorophenyl)-2-methyl-1,2,6-thiadiazinane-3-carboxamide 1,1-dioxide] | 1 to 5
COCCN1[C@H](C(=O)Nc2ccc(F)c(Br)c2)C[C@H](c2nccs2)NS1(=O)=O [HBV-CSU-059-ISO-II, Cis-N-(3-bromo-4-fluorophenyl)-2-(2-methoxyethyl)-5-(thiazol-2-yl)-1,2,6-thiadiazinane-3-carboxamide 1,1-dioxide] | < 1
CN1[C@H](C(=O)Nc2ccc(F)c(Cl)c2)C[C@H](c2ccc(-c3cncn3C)s2)NS1(=O)=O [HBV-CSU-267-ISO-I, Cis-N-(3-Chloro-4-fluorophenyl)-2-methyl-5-(5-(1-methyl-1H-imidazol-5-yl)thiophen-2-yl)-1,2,6-thiadiazinane-3-carboxamide 1,1-dioxide] | < 1
COc1ccc(-c2ccc([C@@H]3C[C@H](C(=O)Nc4ccc(F)c(Cl)c4)N(C)S(=O)(=O)N3)s2)cc1 [HBV-CSU-240-ISO-II] | 1 to 5
CN1[C@@H](C(=O)Nc2ccc(F)c(Cl)c2)C[C@@H](c2cc(-c3cncs3)cs2)NS1(=O)=O [HBV-CSU-286-ISO-II, Cis-N-(3-Chloro-4-fluorophenyl)-2-methyl-5-(4-(thiazol-5-yl)thiophen-2-yl)-1,2,6-thiadiazinane-3-carboxamide 1,1-dioxide] | 1 to 5
CN1C(C(=O)Nc2ccc(F)c(Cl)c2)CC(c2ccc(-c3cncnc3)s2)NS1(=O)=O (racemic) [HBV-CSU-272, Cis-N-(3-chloro-4-fluorophenyl)-2-methyl-5-(5-(pyrimidin-5-yl)thiophen-2-yl)-1,2,6-thiadiazinane-3-carboxamide 1,1-dioxide] | < 1
[2H]C1[C@]([2H])(c2ccc(-c3cn(C([2H])([2H])[2H])cn3)s2)NS(=O)(=O)N(C([2H])([2H])[2H])[C@]1([2H])C(=O)Nc1ccc(F)c(Cl)c1 (stereo in doubt) [HBV-CSU-378-ISO-I, Cis-N-(3-chloro-4-fluorophenyl)-2-(methyl-d3)-5-(5-(1-(methyl-d3)-1H-imidazol-4-yl)thiophen-2-yl)-1,2,6-thiadiazinane-3,4,5-d3-3-carboxamide 1,1-dioxide] | < 1
CN1[C@@H](C(=O)Nc2ccc(F)c(Cl)c2)C[C@@H](c2ccc(-c3cn(C)cn3)s2)NS1(=O)=O [HBV-CSU-266-ISO-II, Cis-N-(3-Chloro-4-fluorophenyl)-2-methyl-5-(5-(1-methyl-1H-imidazol-4-yl)thiophen-2-yl)-1,2,6-thiadiazinane-3-carboxamide 1,1-dioxide] | 1 to 5
CN1[C@@H](C(=O)Nc2ccc(F)c(Cl)c2)C[C@@H](c2ccsn2)NS1(=O)=O (relative stereo) [HBV-CSU-056-ISO-II, Cis-N-(3-chloro-4-fluorophenyl)-5-(isothiazol-3-yl)-2-methyl-1,2,6-thiadiazinane-3-carboxamide 1,1-dioxide] | > 5
CN1C(C(=O)Nc2ccc(F)c(Cl)c2)CC(c2ncc(-c3cn(C)cn3)s2)NS1(=O)=O (racemic) [HBV-CSU-276, Cis-N-(3-Chloro-4-fluorophenyl)-2-methyl-5-(5-(1-methyl-1H-imidazol-4-yl)thiazol-2-yl)-1,2,6-thiadiazinane-3-carboxamide 1,1-dioxide] | < 1
CN1[C@H](C(=O)Nc2ccc(F)c(Cl)c2)C[C@H](c2cc(-c3nncn3C)cs2)NS1(=O)=O [HBV-CSU-328-ISO-I, Cis-N-(3-chloro-4-fluorophenyl)-2-methyl-5-(4-(4-methyl-4H-1,2,4-triazol-3-yl)thiophen-2-yl)-1,2,6-thiadiazinane-3-carboxamide 1,1-dioxide] | < 1
CN1[C@H](C(=O)Nc2ccc(F)c(C#N)c2)C[C@H](c2cccs2)NS1(=O)=O [HBV-CSU-045-ISO-I, Cis-N-(3-cyano-4-fluorophenyl)-2-methyl-5-(thiophen-2-yl)-1,2,6-thiadiazinane-3-carboxamide 1,1-dioxide] | < 1
CN1[C@@H](C(=O)Nc2ccc(F)c(Cl)c2)C[C@@H](c2cc(-c3cccnc3)cs2)NS1(=O)=O [HBV-CSU-167-ISO-II, Cis-N-(3-chloro-4-fluorophenyl)-2-methyl-5-(4-(pyridin-3-yl)thiophen-2-yl)-1,2,6-thiadiazinane-3-carboxamide 1,1-dioxide] | > 5

SMILES | EC50 [µM]
CN1[C@H](C(=O)Nc2ccc(F)c(Cl)c2)C[C@H](c2ncc(-c3cccnc3)s2)NS1(=O)=O [HBV-CSU-175-ISO-I, Cis-N-(3-Chloro-4-fluorophenyl)-2-methyl-5-(5-(pyridin-3-yl)thiazol-2-yl)-1,2,6-thiadiazinane-3-carboxamide 1,1-dioxide] | < 1
COc1ccc(-c2csc([C@@H]3C[C@H](C(=O)Nc4ccc(F)c(Cl)c4)N(C)S(=O)(=O)N3)c2)cc1 [HBV-CSU-241-ISO-II] | 1 to 5
[2H]C([2H])([2H])N1C(C(=O)Nc2ccc(F)c(Cl)c2)CC(c2ccc(-c3cn(C)cn3)s2)NS1(=O)=O (stereo not shown) [HBV-CSU-373] | < 1
O=C(Nc1ccc(F)c(Cl)c1)C1CC(c2nccs2)NS(=O)(=O)N1CCCN1CCOCC1 (stereo not drawn) [HBV-CSU-103, Cis-N-(3-Chloro-4-fluorophenyl)-2-(3-morpholinopropyl)-5-(thiazol-2-yl)-1,2,6-thiadiazinane-3-carboxamide 1,1-dioxide] | > 5
CN1C(C(=O)Nc2ccc(F)c(Cl)c2)CC(c2cc(-c3cncnc3)cs2)NS1(=O)=O (racemic) [HBV-CSU-290, Cis-N-(3-chloro-4-fluorophenyl)-2-methyl-5-(4-(pyrimidin-5-yl)thiophen-2-yl)-1,2,6-thiadiazinane-3-carboxamide 1,1-dioxide] | < 1
CN1C(C(=O)Nc2ccc(Cl)cc2)CC(c2cccs2)NS1(=O)=O (stereo not drawn) [HBV-CSU-014, Cis-N-(4-chlorophenyl)-2-methyl-5-(thiophen-2-yl)-1,2,6-thiadiazinane-3-carboxamide 1,1-dioxide] | 1 to 5
CN1[C@@H](C(=O)Nc2ccc(F)c(Cl)c2)C[C@@H](c2cc(-c3cnn(CCO)c3)cs2)NS1(=O)=O [HBV-CSU-296-ISO-II, Cis-N-(3-chloro-4-fluorophenyl)-5-(4-(1-(2-hydroxyethyl)-1H-pyrazol-4-yl)thiophen-2-yl)-2-methyl-1,2,6-thiadiazinane-3-carboxamide 1,1-dioxide] | 1 to 5
CCn1cc(-c2ccc(C3CC(C(=O)Nc4ccc(F)c(Cl)c4)N(C)S(=O)(=O)N3)s2)cn1 (racemic) [HBV-CSU-291, Cis-N-(3-chloro-4-fluorophenyl)-5-(5-(1-ethyl-1H-pyrazol-4-yl)thiophen-2-yl)-2-methyl-1,2,6-thiadiazinane-3-carboxamide 1,1-dioxide] | < 1
CN1[C@@H](C(=O)Nc2ccc(F)c(Cl)c2)C[C@@H](c2ccc(-c3ccnn3C)s2)NS1(=O)=O [HBV-CSU-271-ISO-II, Cis-N-(3-chloro-4-fluorophenyl)-2-methyl-5-(5-(1-methyl-1H-pyrazol-5-yl)thiophen-2-yl)-1,2,6-thiadiazinane-3-carboxamide 1,1-dioxide] | 1 to 5
Cc1cnc([C@@H]2C[C@H](C(=O)Nc3ccc(F)c(Cl)c3)N(C)S(=O)(=O)N2)s1 | > 5
O=C(Nc1ccc(F)c(Cl)c1)[C@@H]1C[C@H](c2nccs2)NS(=O)(=O)N1CCO (relative stereo) [HBV-CSU-097-ISO-II, Cis-N-(3-Chloro-4-fluorophenyl)-2-(2-hydroxyethyl)-5-(thiazol-2-yl)-1,2,6-thiadiazinane-3-carboxamide 1,1-dioxide] | > 5
C#CCCN1[C@@H](C(=O)Nc2ccc(F)c(Cl)c2)C[C@@H](c2nccs2)NS1(=O)=O [HBV-CSU-090-ISO-II, Cis-2-(But-3-yn-1-yl)-N-(3-chloro-4-fluorophenyl)-5-(thiazol-2-yl)-1,2,6-thiadiazinane-3-carboxamide 1,1-dioxide] | > 5
CN1C(C(=O)Nc2ccc(F)c(Cl)c2)CC(c2cc(-c3ccc(F)cn3)cs2)NS1(=O)=O (racemic) [HBV-CSU-243, Cis-N-(3-chloro-4-fluorophenyl)-5-(4-(5-fluoropyridin-2-yl)thiophen-2-yl)-2-methyl-1,2,6-thiadiazinane-3-carboxamide 1,1-dioxide] | < 1
CN1C(C(=O)Nc2ccc(F)c(Cl)c2)CC(C2CCCC2)NS1(=O)=O (racemic) [HBV-CSU-222, Cis-N-(3-chloro-4-fluorophenyl)-5-cyclopentyl-2-methyl-1,2,6-thiadiazinane-3-carboxamide 1,1-dioxide] | < 1
CN1C(C(=O)Nc2ccc(F)c(Cl)c2)CC(c2ccc(OCC(=O)O)cc2)NS1(=O)=O (racemic) [HBV-CSU-216, Cis-2-(4-(5-((3-Chloro-4-fluorophenyl)carbamoyl)-6-methyl-1,1-dioxido-1,2,6-thiadiazinan-3-yl)phenoxy)acetic acid] | > 5
